US9394520B2, “Expansion of hematopoietic stem cells” (University of Rochester, priority 2006, dated 2016)
Entries after “also recorded” stand apart in the source; their conditions may differ.

What was measured:
HES1 = experiment: Notch target gene HES1 expression by real time RT-PCR; format: cell-based; conditions: UMR 206 cells, PGE2 treatment, starting at 24 hours
Protocol: FIG. 3 is a graph showing that PGE2 treatment in UMR 206 cells increased expression of the Notch target gene HES1 as determined by real time RT-PCR analysis starting at 24 hours.
At the designated times, total RNA and protein were harvested. Total RNA was extracted and analyzed by real time RT-PCR, normalizing for β-actin expression and t=0. Total protein was analyzed by Western blots performed using the XCELL SURELOCK™ system (Invitrogen, Carlsbad, Calif.). Blots were probed with Jag1 c-20 antibody (Santa Cruz Biotechnology, Inc., Santa Cruz, Calif.), and the loading control was B-actin.

ST-HSC = experiment: Competitive repopulation in lethally irradiated recipients; format: in vivo, mice; conditions: donor CD45.2 to competitor CD45.1 1:2, effect limited to short-term (up to 6 weeks)
Protocol: FIGS. 11A, 11B and 11C are graphs showing engraftment data from peripheral blood from competitive repopulation analysis from CD45.2+c57bl/6 mice treated daily with PGE2 (6 mg/kg i.p. twice daily) (n=8 mice per treatment group, n=10 recipient mice per group, 2 experiments).
This effect was limited to the short-term (up to 6 weeks) (FIGS. 11A, 11B and 11C), illustrating specific ST-HSC expansion. This is a unique in vivo model of selective ST-HSC increase. This effect is best illustrated by the short lived CD11b+myeloid subset (FIGS. 11A, 11B and 11C).

hematopoietic stem cells = experiment: HSC frequency by flow cytometric analysis of lin-, sca+, kit+ (LSK/KSL) bone marrow cells; format: in vivo, mice
Protocol: FIG. 7A is a graph showing KSL frequency at 4 days. FIG. 7B is a graph showing KSL frequency at 8 days. FIG. 7C is a graph showing KSL frequency at 12 days. FIG. 7D is a graph showing KSL frequency at 16 days.
FIG. 9 is a graph showing the percent of HSCs in total bone marrow following in vivo administration of PGE2 in C57bl/6 mice. Eight to ten week old WT C5bl/6 mice given IP injections twice daily for 16 days of either 6 mg/kg PGE2 or vehicle (n=4 for each group). The left hind limb of each mouse was harvested, the bone marrow flushed out and the cells stained with lineage markers, sca-1 and c-kit. DAPI was used for a viability stain. The lin−, sca+, kit+ population was gated using FlowJo software for both PGE2 treated and vehicle treated samples. There was a 66% increase in lin−, sca+, kit+ (LSK) cells in PGE2 vs. vehicle treated mice (p=0.0093). As used herein, LSK and KSL frequency are used interchangeably.
Eight to ten week old FVB/N male mice were injected intraperitoneally once or twice daily for 16 days with either PGE2 (6 mg/kg body weight) or vehicle. Left hind limbs were harvested, fixed, decalcified, and processed. Right hindlimbs were harvested at the same time. The bone marrow was flushed and stained for FACS analysis with scal, ckit, and lineage marker antibodies.
In order to determine if the number of HSCs was increased in vivo by PGE2, eight to ten week old FVB/N mice were given daily IP injections for 16 days of either 6 mg/kg PGE2 or Vehicle. The left hind limb of each mouse was harvested, the bone marrow was flushed out, and the cells were stained with lineage markers, sca-1 and c-kit. DAPI was used for a viability stain. The lin−sca+ckit+population was gated using FlowJo software (FlowJo, Ashland, Oreg.) for both PGE2 treated and VEH treated samples. […] The same procedure was performed on C57bl/g mice.

[1] = tested on: intermediate progenitors of hematopoietic stem cells; experiment: Colony forming unit-cell (CFU-C) assay of bone marrow mononuclear cells from treated mice; format: in vivo
Text: (§1) FIG. 8 is a graph showing that intermediate progenitors of hematopoietic stem cells are not increased by PGE2 treatment. Therefore, PGE2 specifically increases HSCs. The bone marrow mononuclear cells from mice treated with vehicle and PGE2 using colony forming unit-cell (CF-C) activity in vitro. […] Peripheral white blood cell and hematocrit levels were not changed in PGE2 vs. vehicle treated mice at 16 days (WBC counts: vehicle averaged 5.75±0.20×10^3/μl; PGE2 averaged 4.72±0.61×10^3/μl) (Hematocrit: vehicle averaged 42±1%; PGE2 averaged 43±2%) (n=6 for each treatment group).
(§2) FIG. 8 is a graph showing that intermediate progenitors of hematopoietic stem cells are not increased by PGE2 treatment. Therefore, PGE2 specifically increases HSCs. The bone marrow mononuclear cells from mice were treated with vehicle and PGE2 to determine if there was an increase in intermediate progenitors in response to PGE2 using the colony forming unit-cell (CFU-C) assay. […] In addition, peripheral white blood cell and hematocrit levels were not changed in PGE2 vs. vehicle treated mice at 16 days (WBC counts: vehicle averaged 5.75±0.20×10^3/μl; PGE2 averaged 4.72±0.61×10^3/μl) (Hematocrit: vehicle averaged 42±1%; PGE2 averaged 43±2%) (n=6 for each treatment group).
The opposite limb of the same mice was used for flow cytometric analysis, in vitro progenitor CFU-C assays and competitive repopulation. […]

[2] = design: species or system mice; conditions: mouse, in vivo
Text: as §1, §2

bone = experiment: Bone analysis (microCT, histology) of PGE2-treated mice; format: in vivo
Protocol: FIG. 6A is a graph showing quantification of bone volume performed by microCT analysis of femora from mice treated with PGE2 (6 mg/kg i.p. daily for 16 days (n=8)).
Adult C57Bl/6 male mice were treated with PGE2 for 16 days.

Structure (SMILES): CCCCC[C@H](O)/C=C/[C@H]1[C@H](O)CC(=O)[C@@H]1C/C=C\CCCC(=O)O [PGE2, Prostaglandin E2]
- expression of the Notch target gene HES1 (HES1): increased
- multilineage reconstitution by donor cells from treated mice (ST-HSC): superior multilineage reconstitution
- increase in lin−, sca+, kit+ (LSK) cells vs. vehicle (hematopoietic stem cells; C57bl/6 mice, 6 mg/kg IP twice daily for 16 days, n=4): 66%
- percent of HSCs (KSL) in total bone marrow (hematopoietic stem cells; FVB/N mice, 6 mg/kg IP daily, 4 to 16 days, vs vehicle, 6 mg/kg): trend towards an increase; also recorded: increased significantly
- increase of HSC enriched LSK subpopulation (hematopoietic stem cells; adult C57Bl/6 male mice, 16 days, n=8 per group): 3.5 fold
- CFU-C frequency ([1]; BMMC from C57Bl/6 mice treated 16 days, Example 2): No evidence of PGE2 effects
- CFU-C frequency ([1]; BMMC from treated mice, Example 1): did not increase
- Hematocrit [2]: 43±2%
- peripheral platelets [2]: not changed
- bone anabolic effect in long bones, histologically or by micro-CT imaging (bone; adult C57Bl/6 male mice, 16 days): no evidence of a significant bone anabolic effect
- bone volume by microCT analysis (bone; adult FVB/N male mice, 6 mg/kg/day i.p., day 12): no significant increase
- cortical width of the tibia (bone; in vivo treatment with PGE2): significantly increased
- tibial metaphyseal trabecularization (bone; in vivo treatment with PGE2): increased
